Measurements: patent publication US20080004266A1, “Method for treating proliferative disorders associated with protooncogene products” (priority 2006, published 2008)

Tests used:
Kasumi-1 cells = details: mutation in c-kit; cited from earlier work
V600E mutant B-raf = assay: Degradation of B-raf in A375 melanoma cells (Western blot); format: cell-based, human; details: 18 hours, at 0.5 mM and 0.1 mM (so in the source)
Experimental: […] After 18 hours, the cells were lysed with 1× lysis buffer and a western blot was perform, and B-raf was detected with anti-B-raf antibody.

MV 4-11 cells (FLT3-ITD) = assay: Cell survival in MV-4-11 cells (Cell Counting Kit-8); format: cell-based, human; details: 72 hours
Experimental: Human acute myelogenous leukemia (AML) cell line, MV 4-11 (ATCC #CRL-9591), was obtained from the American Type Culture Collection (ATCC; Manassas, Va., USA). Growth of this tumor cell line is dependent upon the expression of an activated form of the FLT3 tyrosine kinase receptor carrying an internal tandem duplication (ITD) mutation, which is the most common molecular defect associated with AML (K. W. Yee et al., Blood 100:2941-2949, 2002). MV 4-11 cells (20,000 cells/well) were cultured in 96-well plates and maintained at 37° C. for several hours. The cells were incubated at 37° C. for 72 hours with various concentrations of compounds of the invention, 17AAG, or DMAG. 17AAG and DMAG are Hsp90 inhibitors that are currently in clinical trials and are used here as positive controls for Hsp90 inhibition. Cell survival was measured with Cell Counting Kit-8 (Dojindo Laboratories, Cat # CK04).

[1] = tested on: leukemia cell that express either wild type FLT3 or FLT3-ITD mutations; details: cited from earlier work
B-raf = details: A375 (V600E) versus CHL cells (wild type B-raf); cited from earlier work
Flt3 with Hsp90 = details: cited from earlier work
K562 cells (Bcr-Abl) = assay: Cell survival in K562 cells (Cell Counting Kit-8); format: cell-based, human; details: 72 hours
Experimental: Growth of this tumor cell line is dependent upon the expression of the Bcr-Abl fusion protein (C. Gambacarti-Passerini et al., Blood Cells Mol. Dis. 23:380-394, 1997). K562 cells (20,000 cells/well) were cultured in 96-well plates and maintained at 37° C. for several hours. […] 17AAG, DMAG, and Radicical are Hsp90 inhibitors that are currently in clinical trials and are used here as positive controls for Hsp90 inhibition. […] Cell survival was measured with Cell Counting Kit-8 (Dojindo Laboratories, Cat # CK04).

[2] = tested on: NCI-H1975 cells (EGFR T790M and L858R); assay: Cell survival in NCI-H1975 cells (Cell Counting Kit-8); format: cell-based, human; details: 72 hours
Experimental: Human lung cancer cell line NCI-H1975 which harbors both the T790M and the L858R mutations in EGFR was obtained from American Type Culture Collection. NCI-H1975 (10,000 cells/well) were cultured in 96-well plates and maintained at 37° C. for several hours. The cells were incubated at 37° C. for 72 hours with various concentrations of compound 226 of the invention, 17AAG or DMAG. 17AAG and DMAG are Hsp90 inhibitors that are currently in clinical trials and are used here as positive controls for Hsp90 inhibition. Cell survival was measured with Cell Counting Kit-8 (Dojindo Laboratories, Cat # CK04).

NPM-ALK [3] = assay: Degradation of NPM-ALK in Karpas-299 cells (Western blot); format: cell-based, human; details: 18 hours
Experimental: Anaplastic large-cell lymphoma cells, Karpas-299 cells (the German resource center for biological material) (2×10^6 cells), which harbor the fusion protein NPM-ALK, were treated (0.05 μM, 0.1 μM and 0.5 μM) with either Compound 226 or 17-AAG. After 18 hours and the cells were lysed with 1× lysis buffer and a western blot was perform using an anti-ALK antibody to detect and phosphorylated NPM-ALK and total NPM-ALK.

[4] = tested on: Karpas-299 cells (NPM-ALK); assay: Cell survival in Karpas-299 cells (Cell Counting Kit-8); format: cell-based, human; details: 72 hours
Experimental: Growth of this tumor cell line is dependent upon the expression of the NPM-ALK fusion protein. Karpas-299 cells (20,000 cells/well) were cultured in 96-well plates and maintained at 37° C. for several hours. The cells were incubated at 37° C. for 72 hours with various concentrations of compound 226 of the invention, 17AAG, and 17DMAG. 17AAG and 17DMAG are Hsp90 inhibitors that are currently in clinical trials and are used here as positive controls for Hsp90 inhibition. Cell survival was measured with Cell Counting Kit-8 (Dojindo Laboratories, Cat # CK04).

NPM-ALK [5] = details: NPM-ALK expressing ALCL cells; cited from earlier work
phosphorylated Bcr-Abl = assay: Degradation of Bcr-Abl in KU812 cells (Western blot); format: cell-based; details: 18 hours
Experimental: KU812 chronic myeloid leukemia cells (ATCC) (2×10^6 cells), which harbor the Philadelphia chromosome that produces Bcr-Abl tyrosine kinase, were treated (0.1 μM and 1.0 μM) with either Compound 226, 17-AAG or 17-DMAG. After 18 hours, the cells were lysed with 1× lysis buffer, and a western blot was perform using anti-BCR-ABL antibody to detect phosphorylated Bcr-Abl.

[6] = tested on: Kasumi-1 cells (c-Kit N822K); assay: Cell survival in Kasumi-1 cells (Cell Counting Kit-8); format: cell-based, human; details: 72 hours
Experimental: Kasumi-1 cells (20,000 cells/well) were cultured in 96-well plates and maintained at 37° C. for several hours. […] 17AAG and DMAG are Hsp90 inhibitors that are currently in clinical trials and are used here as positive controls for Hsp90 inhibition. […] Cell survival was measured with Cell Counting Kit-8 (Dojindo Laboratories, Cat # CK04).

A375 cells (B-raf V600E) = assay: Cell survival in A375 melanoma cells (Cell Counting Kit-8); format: cell-based, human; details: 72 hours
Experimental: Human melanoma cell line, A375 (2×10^6 cells), which contains the V600E mutation in the B-raf protein that confers constitutive […] kinase activity, was obtained from American Type Culture Collection. A375 cells (20,000 cells/well) were cultured in 96-well plates and maintained at 37° C. for several hours. The cells were incubated at 37° C. for 72 hours with various concentrations of compound 226, 17AAG or 17DMAG. 17AAG and 17DMAG are Hsp90 inhibitors that are currently in clinical trials and are used here as positive controls for Hsp90 inhibition. Cell survival was measured with Cell Counting Kit-8 (Dojindo Laboratories, Cat # CK04).

In the case of `C=CCNC1=C2C[C@@H](C)C[C@H](OC)[C@H](O)[C@@H](C)/C=C(\C)[C@H](OC(N)=O)[C@@H](OC)/C=C\C=C(/C)C(=O)NC(=CC1=O)C2=O` [Compound 17AAG, 17-allylamino-17-desmethoxygeldanamycin], the apoptosis (Kasumi-1 cells) is given as “induce apoptosis”, the “degradation of V600E mutant B-raf” value (V600E mutant B-raf) is given as “did not induce significant degradation” and the IC50 (MV 4-11 cells (FLT3-ITD)) is given as 0.035 µM. For the same compound, the “growth of leukemia cells” value [1] was “inhibited”, the “degradation of B-raf” value (B-raf) was “degraded more rapidly than in CHL cells” and the “association of Flt3 with Hsp90” value (Flt3 with Hsp90) was “disrupt the association of Flt3 with Hsp90”. The IC50 (K562 cells (Bcr-Abl)) was 0.122 µM, the IC50 [2] was 0.446 µM and the “degradation of phosphorylated and total NPM-ALK” value (NPM-ALK [3]; 0.05 μM and 0.1 μM) was “no effect”. For the same compound, the “degradation of phosphorylated and total NPM-ALK” value (NPM-ALK [3]; 0.5 μM) was “partial degradation”, the IC50 [4] was 0.506 µM and the “cell cycle and apoptosis” value (NPM-ALK [5]) was “induce cell-cycle arrest and apoptosis”. For the same compound, the “degradation of NPM-ALK” value (NPM-ALK [5]) was “increased degradation of NPM-ALK”, the “degradation of phosphorylated Bcr-Abl” value (phosphorylated Bcr-Abl; 0.1 μM) was “did not degrade” and the “degradation of phosphorylated Bcr-Abl” value (phosphorylated Bcr-Abl; 1.0 μM) was “partially degraded”. For the same compound, the IC50 [6] was 0.685 µM and the IC50 (A375 cells (B-raf V600E)) was 0.07 µM.
